In patent US12642794B2, “Dose regimens for use of LY3154207 in the treatment of dopaminergic CNS disorders” (Eli Lilly and Company, priority 2018, dated 2026):

Tests used:
[1] = tested on: participants with PD; test: HBEC motor examination subscore, MDS-UPDRS Part III; assay type: in vivo, human; conditions: 14-day treatment, 75 mg and 75 mg titration
Experimental: FIG. 4: Study HBEC, motor symptoms in PD patients in 14-day treatment with LY3154207. Participants with PD, treated with LY3154207, motor examination subscores compared to those treated with placebo, as measured by MDS-UPDRS Part III. Cohort 5 (LY 75 mg), Cohort 6 (LY 75 mg titration) (Participants with PD in Cohort 6 received 15 mg on Days 1-3 and 30 mg on Days 4-6), Cohort 5/6 (PBO).
Study outcomes included 24-hour ambulatory blood pressure monitoring (ABPM), treatment-emergent adverse events (TEAEs), and PK assessments in both healthy subjects and participants with PD, as well as Movement Disorder Society-United Parkinson's Disease Rating Scale (MDS-UPDRS) assessments to evaluate the impact of LY3154207 on motor function in participants with PD. The objective was to explore the safety, tolerability, and pharmacokinetics (PK) of multiple oral daily dosing of LY3154207 in healthy subjects (Part A) and in participants with PD (Part B).

[2] = tested on: healthy subjects; test: HBEA Part A single ascending dose study: adverse events, safety, tolerability; assay type: in vivo, human
Experimental: FIG. 1: Design of the study HBEA, a single ascending dose study of a D1 receptor positive allosteric modulator LY3154207 in healthy volunteers. aSafety review completed after each dose level prior to escalation. bDose escalation was terminated at 200 mg owing to cardiovascular effects. CSF=cerebrospinal fluid: LY=LY3154207: PBO=placebo: PK-pharmacokinetic.
HBEA is a single ascending dose study of a D1 receptor positive allosteric modulator LY3154207 in healthy volunteers. Study HBEA aims to determine the safety, tolerability, and peripheral and central pharmacokinetics (PK) of single ascending doses of LY3154207 in healthy subjects. Study HBEB aims to evaluate the effect of single-dose LY3154207 on sleep latency in sleep-deprived healthy male subjects as measured by a multiple sleep latency test (MSLT). HBEA was a Phase 1, 2-part, randomized, double-blind, placebo-controlled study in healthy males or females. Part A has a 3-period crossover design with 2 alternating, single-dose escalating cohorts, and subjects were randomized to LY3154207 (n=6) or placebo (n=3) in each cohort in each dosing period. Part B has a single-period, single-dose, 2-cohort design with cerebrospinal fluid (CSF) sampling, and subjects were randomized to LY3154207 (n=8) or placebo (n=4) in each cohort.
This is a phase 1, SAD, crossover design of LY3154207 in healthy subjects conducted in 2 alternating cohorts with dose escalation. Subjects are dosed at 25 mg, 75 mg, 100 mg, 150 mg and 200 mg or placebo. Safety parameters assessed include adverse events (AEs), safety laboratories, vital signs, ambulatory blood pressure monitoring (ABPM) and electrocardiogram (ECG). Subjects provide blood samples after dosing to measure plasma concentrations of LY3154207 for assessment of PK.

Q: Which results are given for `C[C@H]1c2cccc(CCC(C)(C)O)c2C[C@H](CO)N1C(=O)Cc1c(Cl)cccc1Cl` [LY3154207]?
A: motor examination subscore, MDS-UPDRS Part III, compared to placebo [1]: more consistent improvement; serious or severe AEs ([2]; HBEA): No serious or severe AEs occurred; treatment emergent AEs that occurred at doses ≥100 mg, of the total of 111 ([2]; HBEA Part A, doses ≥100 mg): 69/111; severity of treatment-related AEs ([2]; HBEA Part A, occurred primarily at doses ≥100 mg): mostly mild; tolerability ([2]; HBEA, increase in AEs associated with central activation at doses ≥75 mg): well tolerated; frequency of activating adverse events such as insomnia ([2]; above the 75 mg dose): substantial increase in frequency; safety profile ([2]; dose range of 25-200 mg): acceptable safety profile; safety and tolerability ([2]; doses ≤75 mg): acceptable safety and tolerability; Anxiety, treatment-related AE, n subjects ([2]; single dose 25 mg (N = 6)): 0 n; Decreased appetite, treatment-related AE, n subjects ([2]; single dose 25 mg (N = 6)): 0 n; Dizziness, treatment-related AE, n subjects ([2]; single dose 25 mg (N = 6)): 0 n; Dysgeusia, treatment-related AE, n subjects ([2]; single dose 25 mg (N = 6)): 0 n; Energy increased, treatment-related AE, n subjects ([2]; single dose 25 mg (N = 6)): 0 n; Feeling hot, treatment-related AE, n subjects ([2]; single dose 25 mg (N = 6)): 0 n; Headache, treatment-related AE, n subjects ([2]; single dose 25 mg (N = 6)): 0 n; Insomnia, treatment-related AE, n subjects ([2]; single dose 25 mg (N = 6)): 0 n; Nausea, treatment-related AE, n subjects ([2]; single dose 25 mg (N = 6)): 0 n; Treatment-related AEs, (%) ([2]; single dose 25 mg (N = 6)): 16.7%; Treatment-related AEs, [events] ([2]; single dose 25 mg (N = 6)): [1] events; Anxiety, treatment-related AE, n subjects ([2]; single dose 75 mg (N = 6)): 0 n; Decreased appetite, treatment-related AE, [events] ([2]; single dose 75 mg (N = 6)): 1 [1] events; Decreased appetite, treatment-related AE, n subjects ([2]; single dose 75 mg (N = 6)): 1 [1] n; Dizziness, treatment-related AE, [events] ([2]; single dose 75 mg (N = 6)): 2 [2] events; Dizziness, treatment-related AE, n subjects ([2]; single dose 75 mg (N = 6)): 2 [2] n; Dysgeusia, treatment-related AE, n subjects ([2]; single dose 75 mg (N = 6)): 0 n; Energy increased, treatment-related AE, n subjects ([2]; single dose 75 mg (N = 6)): 0 n; Feeling hot, treatment-related AE, n subjects ([2]; single dose 75 mg (N = 6)): 0 n; Headache, treatment-related AE, [events] ([2]; single dose 75 mg (N = 6)): 1 [1] events; Headache, treatment-related AE, n subjects ([2]; single dose 75 mg (N = 6)): 1 [1] n; Insomnia, treatment-related AE, [events] ([2]; single dose 75 mg (N = 6)): 1 [1] events; Insomnia, treatment-related AE, n subjects ([2]; single dose 75 mg (N = 6)): 1 [1] n; Nausea, treatment-related AE, n subjects ([2]; single dose 75 mg (N = 6)): 0 n; Treatment-related AEs, (%) ([2]; single dose 75 mg (N = 6)): 66.7%; Treatment-related AEs, [events] ([2]; single dose 75 mg (N = 6)): [8] events; Anxiety, treatment-related AE, [events] ([2]; single dose 100 mg (N = 8)): 2 [2] events; Anxiety, treatment-related AE, n subjects ([2]; single dose 100 mg (N = 8)): 2 [2] n; Decreased appetite, treatment-related AE, [events] ([2]; single dose 100 mg (N = 8)): 1 [1] events; Decreased appetite, treatment-related AE, n subjects ([2]; single dose 100 mg (N = 8)): 1 [1] n; Dizziness, treatment-related AE, [events] ([2]; single dose 100 mg (N = 8)): 1 [1] events; Dizziness, treatment-related AE, n subjects ([2]; single dose 100 mg (N = 8)): 1 [1] n; Dysgeusia, treatment-related AE, [events] ([2]; single dose 100 mg (N = 8)): 2 [2] events; Dysgeusia, treatment-related AE, n subjects ([2]; single dose 100 mg (N = 8)): 2 [2] n; Energy increased, treatment-related AE, [events] ([2]; single dose 100 mg (N = 8)): 1 [1] events; Energy increased, treatment-related AE, n subjects ([2]; single dose 100 mg (N = 8)): 1 [1] n; Feeling hot, treatment-related AE, [events] ([2]; single dose 100 mg (N = 8)): 1 [1] events; Feeling hot, treatment-related AE, n subjects ([2]; single dose 100 mg (N = 8)): 1 [1] n; Headache, treatment-related AE, n subjects ([2]; single dose 100 mg (N = 8)): 0 n; Insomnia, treatment-related AE, [events] ([2]; single dose 100 mg (N = 8)): 4 [4] events; Insomnia, treatment-related AE, n subjects ([2]; single dose 100 mg (N = 8)): 4 [4] n; Nausea, treatment-related AE, n subjects ([2]; single dose 100 mg (N = 8)): 0 n; Treatment-related AEs, (%) ([2]; single dose 100 mg (N = 8)): 75.0%; Treatment-related AEs, [events] ([2]; single dose 100 mg (N = 8)): [17] events; Anxiety, treatment-related AE, [events] ([2]; single dose 150 mg (N = 9)): 4 events; Anxiety, treatment-related AE, n subjects ([2]; single dose 150 mg (N = 9)): 3 n; Decreased appetite, treatment-related AE, [events] ([2]; single dose 150 mg (N = 9)): 3 [3] events; Decreased appetite, treatment-related AE, n subjects ([2]; single dose 150 mg (N = 9)): 3 [3] n; Dizziness, treatment-related AE, [events] ([2]; single dose 150 mg (N = 9)): 2 [2] events; Dizziness, treatment-related AE, n subjects ([2]; single dose 150 mg (N = 9)): 2 [2] n; Dysgeusia, treatment-related AE, [events] ([2]; single dose 150 mg (N = 9)): 2 [2] events; Dysgeusia, treatment-related AE, n subjects ([2]; single dose 150 mg (N = 9)): 2 [2] n; Energy increased, treatment-related AE, [events] ([2]; single dose 150 mg (N = 9)): 1 [1] events; Energy increased, treatment-related AE, n subjects ([2]; single dose 150 mg (N = 9)): 1 [1] n; Feeling hot, treatment-related AE, [events] ([2]; single dose 150 mg (N = 9)): 1 [1] events; Feeling hot, treatment-related AE, n subjects ([2]; single dose 150 mg (N = 9)): 1 [1] n; Headache, treatment-related AE, [events] ([2]; single dose 150 mg (N = 9)): 2 [2] events; Headache, treatment-related AE, n subjects ([2]; single dose 150 mg (N = 9)): 2 [2] n; Insomnia, treatment-related AE, [events] ([2]; single dose 150 mg (N = 9)): 3 [3] events; Insomnia, treatment-related AE, n subjects ([2]; single dose 150 mg (N = 9)): 3 [3] n; Nausea, treatment-related AE, [events] ([2]; single dose 150 mg (N = 9)): 2 [2] events; Nausea, treatment-related AE, n subjects ([2]; single dose 150 mg (N = 9)): 2 [2] n; Treatment-related AEs, (%) ([2]; single dose 150 mg (N = 9)): 88.9%; Treatment-related AEs, [events] ([2]; single dose 150 mg (N = 9)): [34] events; Anxiety, treatment-related AE, [events] ([2]; single dose 200 mg (N = 6)): 1 [1] events; Anxiety, treatment-related AE, n subjects ([2]; single dose 200 mg (N = 6)): 1 [1] n; Decreased appetite, treatment-related AE, [events] ([2]; single dose 200 mg (N = 6)): 2 [2] events; Decreased appetite, treatment-related AE, n subjects ([2]; single dose 200 mg (N = 6)): 2 [2] n; Dizziness, treatment-related AE, [events] ([2]; single dose 200 mg (N = 6)): 1 [1] events; Dizziness, treatment-related AE, n subjects ([2]; single dose 200 mg (N = 6)): 1 [1] n; Dysgeusia, treatment-related AE, n subjects ([2]; single dose 200 mg (N = 6)): 0 n; Energy increased, treatment-related AE, [events] ([2]; single dose 200 mg (N = 6)): 1 [1] events; Energy increased, treatment-related AE, n subjects ([2]; single dose 200 mg (N = 6)): 1 [1] n; Feeling hot, treatment-related AE, [events] ([2]; single dose 200 mg (N = 6)): 1 [1] events; Feeling hot, treatment-related AE, n subjects ([2]; single dose 200 mg (N = 6)): 1 [1] n; Headache, treatment-related AE, n subjects ([2]; single dose 200 mg (N = 6)): 0 n; Insomnia, treatment-related AE, [events] ([2]; single dose 200 mg (N = 6)): 3 [3] events; Insomnia, treatment-related AE, n subjects ([2]; single dose 200 mg (N = 6)): 3 [3] n; Nausea, treatment-related AE, [events] ([2]; single dose 200 mg (N = 6)): 2 [2] events; Nausea, treatment-related AE, n subjects ([2]; single dose 200 mg (N = 6)): 2 [2] n; Treatment-related AEs, (%) ([2]; single dose 200 mg (N = 6)): 83.3%; Treatment-related AEs, [events] ([2]; single dose 200 mg (N = 6)): [18] events
